≈ marks a conversion by molar mass, not a printed value. Where two headings read alike, the source gives them in different places.
Assays:
[1] = Kinetic solubility test in water and bio-relevant media (SGF, FaSSIF, FeSSIF); type: physicochemical; conditions: for solubility at 1 h: 37 °C, thermodynamic from solid, read-out: S: solubility; for solubility at 1 h / S: solubility: 37° C.; for Purity (%), area percentage of API: for reference only (suspensions); for FC: form change: residual solids by XRPD; for pH: supernatant
Experimental: (§1) Weigh 100 mg of sodium chloride and 50 mg of Triton X-100 into a 50-mL volumetric flask. Add appropriate volume of purified water and sonicate until all solids are completely dissolved. Add about 68 μL of 12 M HCl and sufficient purified water closely to the target volume and adjust to pH 1.8. Dilute to volume with purified water, mix well and check the pH with a pH meter.
as §1, with “170” for “100”, “phosphate monobasic, 21” for “chloride and 50”, “sodium hydroxide and 310 mg of sodium chloride, 110 mg of SIF powder” for “Triton X-100”, “Add” for “Add about 68 μL of 12 M HCl and”, “6.5.” for “1.8.”
Weigh 0.41 mL of glacial acetic acid, 202 mg of sodium hydroxide and 594 mg of sodium chloride, 560 mg of SIF powder into a 50-mL volumetric flask. Add appropriate volume of purified water to dissolve the solids. Then add sufficient purified water closely to the target volume and adjust to pH 5.0. Dilute to volume with purified water, mix well and check the pH with a pH meter.
Kinetic solubility was evaluated in water and three bio-relevant media (SGF, FaSSIF and FeSSIF) for 1/4/24 hours. 3-4 mg of solids were suspended in 3 mL each medium (solid loading: 1 mg/mL, calculated using freeform) to get a suspension, followed by rolling (25 rpm) at 37° C. for 1/4/24 hours. At each time point, ˜1.0 mL of suspension was sampled out for centrifugation (12000 rpm, 2 min) and filtration through 0.45 μm PTFE membrane to obtain supernatant for HPLC and pH tests, the residual solids were analyzed by XRPD.
Kinetic solubility was evaluated for 1:1 Compound II Citrate Salt (Form A), 1:1 Compound II Tris Salt (Form B), and freeform of Compound II in water and three bio-relevant media (SGF, FaSSIF and FeSSIF) for 1/4/24 hours. 3-4 mg of solids were suspended in 3 mL each medium (solid loading:
1 mg/mL, calculated using freeform) to get a suspension, followed by rolling (25 rpm) at 37° C. for 1/4/24 hours. At each time point, ˜1.0 mL of suspension was sampled out for centrifugation (12000 rpm, 2 min) and filtration through 0.45 μm PTFE membrane to obtain supernatant for HPLC and pH tests, the residual solids were analyzed by XRPD. […] The purity results were for reference only since the samples were all suspensions.

[2] = Solid stability evaluation (I/II), XRPD and HPLC; type: physicochemical; conditions: for Purity (area %): listed as Amorphous Free form
Experimental: To evaluate the physical and chemical stability of 1:1 Compound I Tris Salt (Form A) and amorphous free form, samples were stored under the conditions of 60° C. for 1 day and 25° C./60% RH or 40° C./75% RH for 1 week, respectively.
To evaluate the physical and chemical stability of 1:1 Compound II Citrate Salt (Form A), 1:1 Compound II Tris Salt (Form B) and freeform, samples were stored under the conditions of 60° C. for 1 day and 25° C./60% RH or 40° C./75% RH for 1 week, respectively.

[3] = FaSSIF, 4 hours, listed as Free form amorphous
[4] = FaSSIF, 24 hours, listed as Free form amorphous
[5] = FeSSIF, 1 hour, listed as Free form amorphous
[6] = FeSSIF, 4 hours, listed as Free form amorphous
[7] = FeSSIF, 24 hours, listed as Free form amorphous
[8] = H2O, 1 hour, listed as Free form amorphous
[9] = H2O, 4 hours, listed as Free form amorphous
[10] = H2O, 24 hours, listed as Free form amorphous
[11] = SGF, 1 hour, listed as Free form amorphous
[12] = SGF, 4 hours, listed as Free form amorphous
[13] = SGF, 24 hours, listed as Free form amorphous

O=C(O)c1ccc2nc(CN3CC=C(c4cccc(OCc5ccc(Cl)cc5F)c4)CC3)n(C[C@@H]3CCO3)c2c1 [Compound I, (S)-2-((4-(3-((4-chloro-2-fluorobenzyl)-oxy)phenyl)-3,6-dihydropyridin-1(2H)-yl)methyl)-1-(oxetan-2-ylmethyl)-1H-benzo[d]-imidazole-6-carboxylic acid]
solubility at 1 h ([1]; FaSSIF, pH 6.5, fassif, FaSSIF, 1 hour): 200 µg/mL (≈ 356 µM)
Purity (%), area percentage of API ([1]; FaSSIF, 1 hour, listed as Free form amorphous): 93.54%
S: solubility [1, 3]: 80 µg/mL
Purity (%), area percentage of API ([1]; FaSSIF, 4 hours): 49.59%
S: solubility [1, 4]: 40 µg/mL
Purity (%), area percentage of API [1, 4]: 63.24%
solubility at 1 h ([1]; FeSSIF, pH 5, fessif, FeSSIF, 1 hour): 400 µg/mL (≈ 712 µM)
Purity (%), area percentage of API [1, 5]: 94.78%
S: solubility [1, 6]: 500 µg/mL
Purity (%), area percentage of API [1, 6]: 91.80%
S: solubility [1, 7]: 400 µg/mL
Purity (%), area percentage of API [1, 7]: 77.57%
S: solubility [1, 8]: 30 µg/mL
Purity (%), area percentage of API [1, 8]: 100.00%
S: solubility [1, 9]: 20 µg/mL
Purity (%), area percentage of API [1, 9]: 87.13%
S: solubility [1, 10]: <LOQ
Purity (%), area percentage of API [1, 10]: 9.97%
S: solubility ([1]; SGF, 1 hour): 400 µg/mL
Purity (%), area percentage of API [1, 11]: 93.07%
S: solubility [1, 12]: 600 µg/mL
Purity (%), area percentage of API [1, 12]: 94.02%
S: solubility [1, 13]: 800 µg/mL
Purity (%), area percentage of API [1, 13]: 91.48%
FC: form change ([1]; FaSSIF, 1 hour): No
FC: form change ([1]; FaSSIF, 4 hours): No
FC: form change [1, 4]: Yes
FC: form change ([1]; FeSSIF, 1 hour): No
FC: form change ([1]; FeSSIF, 4 hours): No
FC: form change ([1]; FeSSIF, 24 hours): No
FC: form change ([1]; H2O, 1 hour): No
FC: form change ([1]; H2O, 4 hours): No
FC: form change ([1]; H2O, 24 hours): No
FC: form change [1, 11]: No
FC: form change [1, 12]: No
FC: form change [1, 13]: No
pH ([1]; FaSSIF, 1 hour): 6.5
pH [1, 3]: 6.5
pH [1, 4]: 6.4
pH [1, 5]: 5.0
pH ([1]; FeSSIF, 4 hours): 5.0
pH ([1]; FeSSIF, 24 hours): 5.0
pH [1, 8]: 8.4
pH [1, 9]: 7.3
pH [1, 10]: 6.8
pH [1, 12]: 1.9
Form change ([2]; 25° C./60% RH (open), 1 week): No
Observation ([2]; 25° C./60% RH (open), 1 week): Yellowish
Purity (area %) ([2]; 25° C./60% RH (open), 1 week): 93.06 area %
Purity (area %) ([2]; 40° C./75% RH (open), 1 week): 89.59 area %
Form change ([2]; 60° C. (capped), 1 day): No
Observation ([2]; 60° C. (capped), 1 day): Yellowish
Purity (area %) ([2]; 60° C. (capped), 1 day): 86.88 area %
Form change ([2]; Initial): No
Observation ([2]; Initial): White powder
Purity (area %) ([2]; Initial): 94.71 area %

From patent publication US20230203023A1, “SALT AND CRYSTAL FORMS OF GLP-1R AGONISTS AND USES THEREOF” (QILU REGOR THERAPEUTICS INC., priority 2020, published 2023)
